Experimental data taken from patent publication US4619925A, “3-Propenyl cephalosporin derivatives” (priority 1985, dated 1986).
Values after ≈ are worked out from the molar mass of the structure shown.

Experiments:
[1] = system: S. aureus Smith and E. coli Juhl; test: Protective effect in mice infected with a lethal inoculum (overall); type: in vivo
Text: (§1) The data in Table 2 are results of protective doses (PD50) for mice infected with a lethal inoculum of bacteria. Two different bacteria were employed in the studies, one a Gram-positive organism (S. aureus Smith) and the other a Gram-negative organism (E. coli Juhl). The PD50 is that dose which, when administered to a group of injected mice, results in 50% survival after five days. Normally untreated infected mice die within three days following injection of the lethal inoculum.

S. aureus Smith = test: Protective dose for mice infected with lethal inoculum; type: in vivo; settings: 50% survival after five days
Text: as §1

E. coli Juhl = test: as above; type: in vivo; settings: 50% survival after five days
Text: as §1

[2] = system: Gp-Ia organisms (Gram-positive staphylococci sensitive to penicillin); test: In vitro activity, agar dilution, group of five strains; type: cell-based
Text: (§2) Each of these groups of organisms is constituted of five individual strains of microorganism. The Gp-Ia organisms are Gram-positive staphylococci which are sensitive to penicillin. The Gp-Ib organisms are Gram-positive staphylococci which are resistant to penicillin and produce penicillinase. The Gn-Ia organisms are Gram-negative bacteria which are sensitive to ampicillin and cephalothin. The Gn-Ib organisms are Gram-negative bacteria which are resistant to ampicillin and cephalothin.

[3] = system: Gp-Ib organisms (Gram-positive staphylococci resistant to penicillin); test: as above; type: cell-based
Text: as §2

S. pneumoniae A9585 = test: In vitro activity against fastidious bacteria; type: cell-based; settings: Streptococcus pneumoniae; S. pneumoniae A9585; read-out: MIC
Text: (§3) Table 5 contains comparative data for in vitro antibacterial activity against fastidious bacteria.

S. pneumoniae A20759 = test: In vitro activity against fastidious bacteria; type: cell-based; settings: Streptococcus pneumoniae; S. pneumoniae A20759; read-out: MIC
Text: as §3

S. pyogenes A15040 = test: In vitro activity against fastidious bacteria; type: cell-based; settings: Streptococcus pyogenes; S. pyogenes A15040; read-out: MIC
Text: as §3

S. pyogenes Dick = test: In vitro activity against fastidious bacteria; type: cell-based; settings: Streptococcus pyogenes; S. pyogenes Dick; read-out: MIC
Text: as §3

N. meningitidis A20049 = test: In vitro activity against fastidious bacteria; type: cell-based; settings: Neisseria meningitidis; N. meningitidis A20049; read-out: MIC
Text: as §3

S. pyogenes A9604 = test: In vitro activity against fastidious bacteria; type: cell-based; settings: Streptococcus pyogenes; S. pyogenes A9604; read-out: MIC
Text: as §3

S. pyogenes A20065 = test: In vitro activity against fastidious bacteria; type: cell-based; settings: Streptococcus pyogenes; S. pyogenes A20065; read-out: MIC
Text: as §3

H. influenzae A22482 = test: In vitro activity against fastidious bacteria; type: cell-based; settings: Haemophilus influenzae, A22482
Text: as §3

N. meningitidis A21495 = test: In vitro activity against fastidious bacteria; type: cell-based; settings: Neisseria meningitidis; N. meningitidis A21495; read-out: MIC
Text: as §3

H. influenzae A22481 = test: In vitro activity against fastidious bacteria; type: cell-based; settings: Haemophilus influenzae, ampicillin-resistant (ABPC-R)
Text: as §3

N. gonorrheae A20143 = test: In vitro activity against fastidious bacteria; type: cell-based; settings: N. gonorrheae A20143; read-out: MIC
Text: as §3

H. influenzae A20193 = test: In vitro activity against fastidious bacteria; type: cell-based; settings: Haemophilus influenzae; H. influenzae A20193; ampicillin-sensitive (ABPC-S); read-out: MIC
Text: as §3

S. pyogenes s-23 = test: In vitro activity against fastidious bacteria; type: cell-based; settings: Streptococcus pyogenes, S23; S. pyogenes s-23; read-out: MIC
Text: as §3

H. influenzae A22491 = test: In vitro activity against fastidious bacteria; type: cell-based; settings: Haemophilus influenzae, ampicillin-resistant (ABPC-R)
Text: as §3

H. influenzae A21523 = test: In vitro activity against fastidious bacteria; type: cell-based; settings: Haemophilus influenzae; H. influenzae A21523; ampicillin-sensitive (ABPC-S); read-out: MIC
Text: as §3

S. pneumoniae Type I = test: In vitro activity against fastidious bacteria; type: cell-based; settings: Streptococcus pneumoniae; S. pneumoniae Type I; read-out: MIC
Text: as §3

H. influenzae A9833 = test: In vitro activity against fastidious bacteria; type: cell-based; settings: Haemophilus influenzae; H. influenzae A9833; ampicillin-sensitive (ABPC-S); read-out: MIC
Text: as §3

H. influenzae A9729 = test: In vitro activity against fastidious bacteria; type: cell-based; settings: Haemophilus influenzae; H. influenzae A9729; ampicillin-sensitive (ABPC-S); read-out: MIC
Text: as §3

N. meningitidis A20048 = test: In vitro activity against fastidious bacteria; type: cell-based; settings: Neisseria meningitidis; N. meningitidis A20048; read-out: MIC
Text: as §3

H. influenzae A22483 = test: In vitro activity against fastidious bacteria; type: cell-based; settings: Haemophilus influenzae, A22483
Text: as §3

Mouse blood levels = test: Mouse blood levels
Text: Table 3 contains comparative blood level data for mice treated orally and intramuscularly with the hydroxyphenylglycyl derivatives.

## C/C=C\C1=C(C(=O)O)N2C(=O)C(NC(=O)[C@H](N)c3cccc(O)c3)[C@H]2SC1 (stereo partly shown) [BMY-28272, 7-[(D)-2-amino-2-(3-hydroxyphenyl)acetamido]-3-[(Z)-1-propenyl]-3-cephem-4-carboxylic acid]
[1]
  effectiveness in vivo: effectiveness of BMY-28272 in vivo is confirmed
S. aureus Smith; im
  PD50 (protective dose): 0.29
S. aureus Smith; po
  PD50 (protective dose): 0.17
E. coli Juhl; im
  PD50 (protective dose): 1.9
E. coli Juhl; po
  PD50 (protective dose): 2.6
[2]
  activity relative to BMY-28100: same as BMY-28100
  activity relative to cephalexin and cefaclor: two or four times more active than cephalexin and cefaclor
[3]
  activity relative to BMY-28100: slightly less active than BMY-28100
  activity relative to cephalexin or cefaclor: three times more active than cephalexin or cefaclor
S. pneumoniae A9585
  MIC: 0.1 mg/L (≈ 0.257 µM)
S. pneumoniae A20759
  MIC: 0.4 mg/L (≈ 1.03 µM)
S. pyogenes A15040
  MIC: 0.05 mg/L (≈ 0.128 µM)
S. pyogenes Dick
  MIC: 0.05 mg/L (≈ 0.128 µM)
N. meningitidis A20049
  MIC: 0.8 mg/L (≈ 2.05 µM)
S. pyogenes A9604
  MIC: 0.05 mg/L (≈ 0.128 µM)
S. pyogenes A20065
  MIC: 0.05 mg/L (≈ 0.128 µM)
H. influenzae A22482
  MIC: 0.4 mg/L (≈ 1.03 µM)
N. meningitidis A21495
  MIC: 0.4 mg/L (≈ 1.03 µM)
H. influenzae A22481
  MIC: 0.8 mg/L (≈ 2.05 µM)
N. gonorrheae A20143
  MIC: 0.8 mg/L (≈ 2.05 µM)
H. influenzae A20193
  MIC: 0.8 mg/L (≈ 2.05 µM)
S. pyogenes s-23
  MIC: 0.05 mg/L (≈ 0.128 µM)
H. influenzae A22491
  MIC: 0.8 mg/L (≈ 2.05 µM)
H. influenzae A21523
  MIC: 0.8 mg/L (≈ 2.05 µM)
S. pneumoniae Type I
  MIC: 0.1 mg/L (≈ 0.257 µM)
H. influenzae A9833
  MIC: 0.4 mg/L (≈ 1.03 µM)
H. influenzae A9729
  MIC: 0.4 mg/L (≈ 1.03 µM)
N. meningitidis A20048
  MIC: 0.8 mg/L (≈ 2.05 µM)
H. influenzae A22483
  MIC: 0.4 mg/L (≈ 1.03 µM)
Mouse blood levels; 20 mg/kg intramuscularly
  AUC relative to BMY-28100: greater AUC value
  T1/2 relative to BMY-28100: longer T1/2 than BMY-28100
Mouse blood levels; 100 mg/kg orally
  AUC relative to BMY-28100: greater AUC value
  T1/2 relative to BMY-28100: somewhat shorter T1/2 than BMY-28100
  duration of blood levels relative to BMY-28100: longer duration of blood levels
Mouse blood levels; following oral administration, summary statement
  antibiotic concentrations in the bloodstream: prolonged antibiotic concentrations in the bloodstream following oral administration
Mouse blood levels; mouse, blood, im, 20 mg/kg
  concentration at 10 min: 20 µg/mL
  concentration at 20 min: 17 µg/mL
  concentration at 0.5 h: 17 µg/mL
  concentration at 40 min: 12 µg/mL
  concentration at 50 min: 11 µg/mL
  concentration at 1 h: 9.4 µg/mL
  concentration at 1.5 h: 4.8 µg/mL
  concentration at 2 h: 2.6 µg/mL
Mouse blood levels; mouse, blood, im, 20 mg/kg, 20 mg/kg i.m.
  AUC: 20 µg·h/mL
Mouse blood levels; mouse, blood, im, 20 mg/kg, T 1/2, 20 mg/kg i.m.
  half-life: 36 min
Mouse blood levels; mouse, blood, po, 20 mg/kg
  Cmax: 9.6 µg/mL
  concentration at 0.5 h: 7.7 µg/mL
  concentration at 1 h: 4.2 µg/mL
  concentration at 2 h: 1.6 µg/mL
  concentration at 3 h: 0.62 µg/mL
  concentration at 4 h: 0.22 µg/mL
  concentration at 5 h: 0.13 µg/mL
  concentration at 6 h: 0.082 µg/mL
Mouse blood levels; mouse, blood, po, 20 mg/kg, 20 mg/kg p.o.
  AUC: 9.7 µg·h/mL
Mouse blood levels; mouse, blood, po, 20 mg/kg, 20 mg/kg p.o., another experiment (footnote)
  AUC: 17 µg·h/mL
Mouse blood levels; mouse, blood, po, 20 mg/kg, T 1/2, 20 mg/kg p.o.
  half-life: 51.6 min
Mouse blood levels; mouse, blood, po, 20 mg/kg, T 1/2, 20 mg/kg p.o., another experiment (footnote)
  half-life: 60 min
Mouse blood levels; mouse, blood, po, 100 mg/kg
  concentration at 0.5 h: 23 µg/mL
  concentration at 1 h: 22 µg/mL
  concentration at 2 h: 16 µg/mL
  concentration at 3 h: 10 µg/mL
  concentration at 4 h: 6.3 µg/mL
  concentration at 5 h: 3.1 µg/mL
  concentration at 6 h: 2.8 µg/mL
  concentration at 7 h: 2.5 µg/mL
Mouse blood levels; mouse, blood, po, 100 mg/kg, 100 mg/kg p.o.
  AUC: 71 µg·h/mL
Mouse blood levels; mouse, blood, po, 100 mg/kg, T 1/2, 100 mg/kg p.o.
  half-life: 102 min
